Assay results as given in ChEMBL document CHEMBL1139986, “Synthesis and biodistribution of 8-iodo-11-(4-methylpiperazino)-5H-dibenzo[b,e][1,4]-diazepine: Iozapine” (Bioorg Med Chem Lett, 2007).

Legend:
Settings in all cases: in vivo
[1] = system: Thyroid gland; assay: Biodistribution in rabbit thyroid at 20 MBq after 0.5 hrs; assay type: ADME, organism-based, Oryctolagus cuniculus
[2] = species on record: Oryctolagus cuniculus; assay: Biodistribution in rabbit whole body at 20 MBq after 3.0 hrs; assay type: ADME, organism-based
[3] = system: Lung; assay: Biodistribution in rabbit lung at 20 MBq after 2.0 hrs; assay type: ADME, organism-based, Oryctolagus cuniculus
[4] = system: Thyroid gland; assay: Biodistribution in rabbit thyroid at 20 MBq; assay type: ADME, organism-based, Oryctolagus cuniculus
[5] = system: Lung; assay: Biodistribution in rabbit lung at 20 MBq after 0.5 hrs; assay type: ADME, organism-based, Oryctolagus cuniculus
[6] = system: Thyroid gland; assay: Biodistribution in rabbit thyroid at 20 MBq after 1 hr; assay type: ADME, organism-based, Oryctolagus cuniculus
[7] = system: Lung; assay: Biodistribution in rabbit lung at 20 MBq after 20.0 hrs; assay type: ADME, organism-based, Oryctolagus cuniculus
[8] = species on record: Oryctolagus cuniculus; assay: Biodistribution in rabbit whole body at 20 MBq after 2.5 hrs; assay type: ADME, organism-based
[9] = system: Lung; assay: Biodistribution in rabbit lung at 20 MBq after 2.5 hrs; assay type: ADME, organism-based, Oryctolagus cuniculus
[10] = species on record: Oryctolagus cuniculus; assay: Biodistribution in rabbit whole body at 20 MBq after 0.5 hrs; assay type: ADME, organism-based
[11] = system: Brain; assay: Biodistribution in rabbit brain at 20 MBq after 2.5 hrs; assay type: ADME, organism-based, Oryctolagus cuniculus
[12] = species on record: Oryctolagus cuniculus; assay: Biodistribution in rabbit whole body at 20 MBq after 20.0 hrs; assay type: ADME, organism-based
[13] = system: Brain; assay: Biodistribution in rabbit brain at 20 MBq after 1.5 hrs; assay type: ADME, organism-based, Oryctolagus cuniculus
[14] = system: Thyroid gland; assay: Biodistribution in rabbit thyroid at 20 MBq after 20.0 hrs; assay type: ADME, organism-based, Oryctolagus cuniculus
[15] = system: Lung; assay: Biodistribution in rabbit lung at 20 MBq after 1.5 hrs; assay type: ADME, organism-based, Oryctolagus cuniculus
[16] = system: Brain; assay: Biodistribution in rabbit brain at 20 MBq after 3.0 hrs; assay type: ADME, organism-based, Oryctolagus cuniculus
[17] = system: Brain; assay: Biodistribution in rabbit brain at 20 MBq after 2.0 hrs; assay type: ADME, organism-based, Oryctolagus cuniculus
[18] = system: Brain; assay: Biodistribution in rabbit brain at 20 MBq after 0.5 hrs; assay type: ADME, organism-based, Oryctolagus cuniculus
[19] = system: Brain; assay: Biodistribution in rabbit brain at 20 MBq after 1 hr; assay type: ADME, organism-based, Oryctolagus cuniculus
[20] = species on record: Oryctolagus cuniculus; assay: Biodistribution in rabbit whole body at 20 MBq after 1.5 hrs; assay type: ADME, organism-based
[21] = species on record: Oryctolagus cuniculus; assay: Biodistribution in rabbit whole body at 20 MBq after 1 hr; assay type: ADME, organism-based
[22] = system: Lung; assay: Biodistribution in rabbit lung at 20 MBq after 1 hr; assay type: ADME, organism-based, Oryctolagus cuniculus
[23] = system: Lung; assay: Biodistribution in rabbit lung at 20 MBq; assay type: ADME, organism-based, Oryctolagus cuniculus
[24] = species on record: Oryctolagus cuniculus; assay: Biodistribution in rabbit whole body at 20 MBq; assay type: ADME, organism-based
[25] = system: Thyroid gland; assay: Biodistribution in rabbit thyroid at 20 MBq after 3.0 hrs; assay type: ADME, organism-based, Oryctolagus cuniculus
[26] = system: Thyroid gland; assay: Biodistribution in rabbit thyroid at 20 MBq after 2.5 hrs; assay type: ADME, organism-based, Oryctolagus cuniculus
[27] = system: Thyroid gland; assay: Biodistribution in rabbit thyroid at 20 MBq after 2.0 hrs; assay type: ADME, organism-based, Oryctolagus cuniculus
[28] = species on record: Oryctolagus cuniculus; assay: Biodistribution in rabbit whole body at 20 MBq after 2.0 hrs; assay type: ADME, organism-based
[29] = system: Brain; assay: Biodistribution in rabbit brain at 20 MBq; assay type: ADME, organism-based, Oryctolagus cuniculus
[30] = system: Lung; assay: Biodistribution in rabbit lung at 20 MBq after 3.0 hrs; assay type: ADME, organism-based, Oryctolagus cuniculus
[31] = system: Thyroid gland; assay: Biodistribution in rabbit thyroid at 20 MBq after 1.5 hrs; assay type: ADME, organism-based, Oryctolagus cuniculus
[32] = system: Brain; assay: Biodistribution in rabbit brain at 20 MBq after 20.0 hrs; assay type: ADME, organism-based, Oryctolagus cuniculus

- Drug uptake [1]: 1.4 %ID
- Drug uptake [2]: 96.9 %ID
- Drug uptake [3]: 7.6 %ID
- Drug uptake [4]: 1.5 %ID
- Drug uptake [5]: 10.7 %ID
- Drug uptake [6]: 1.4 %ID
- Drug uptake [7]: 2.3 %ID
- Drug uptake [8]: 99.4 %ID
- Drug uptake [9]: 6 %ID
- Drug uptake [10]: 98.7 %ID
- Drug uptake [11]: 1.5 %ID
- Drug uptake [12]: 54.6 %ID
- Drug uptake [13]: 1.6 %ID
- Drug uptake [14]: 1.9 %ID
- Drug uptake [15]: 8.1 %ID
- Drug uptake [16]: 1.2 %ID
- Drug uptake [17]: 1.5 %ID
- Drug uptake [18]: 2.2 %ID
- Drug uptake [19]: 1.8 %ID
- Drug uptake [20]: 97.7 %ID
- Drug uptake [21]: 95.8 %ID
- Drug uptake [22]: 10.4 %ID
- Drug uptake [23]: 14.7 %ID
- Drug uptake [24]: 100 %ID
- Drug uptake [25]: 1.4 %ID
- Drug uptake [26]: 1.2 %ID
- Drug uptake [27]: 1.4 %ID
- Drug uptake [28]: 97.4 %ID
- Drug uptake [29]: 2.2 %ID
- Drug uptake [30]: 6.4 %ID
- Drug uptake [31]: 1.3 %ID
- Drug uptake [32]: 0.7 %ID
Structure (SMILES): CN1CCN(C2=Nc3cc([123I])ccc3Nc3ccccc32)CC1 [[123I]I-OZAPINE]
